Experimental data: patent US7211678B2, “Stable crystals of pyrrole compound” (Nippon Shinyaku Co., Ltd., priority 2001, dated 2007)

Key:
[1] = Dry grinding test (planet ball mill, evaluated by powder X-ray spectrum); format: physicochemical; settings: 1 g, 2480 rpm for 5 hours
Procedure: Type-I crystal (1 g) and type-II crystal (1 g) were respectively charged in a planet ball mill (manufactured by Fritsch Japan) and then grinded at 2480 rpm for 5 hours. The grinded crystals were evaluated by a powder X-ray spectrum.

[2] = as described in WO96/40634; cited from earlier work

| SMILES | crystal transition after dry grinding [1] | urinary bladder capacity increasing activity [2] |
| --- | --- | --- |
| Cc1c(-c2ccccc2F)[nH]c(N)c1C#N [type-II crystal, 2-amino-3-cyano-4-methyl-5-(2-fluorophenyl)pyrrole, reference compound] | transition of crystals into type-I crystal was recognized | – |
| Cc1c(-c2ccccc2F)[nH]c(N)c1C#N [type-I crystal, 2-amino-3-cyano-4-methyl-5-(2-fluorophenyl)pyrrole] | No crystal transition was recognized | – |
| Cc1c(-c2ccccc2F)[nH]c(N)c1C#N [the pyrrole compound, 2-amino-3-cyano-4-methyl-5-(2-fluorophenyl)pyrrole] | – | excellent urinary bladder capacity increasing activity |
